Data set [1] relates to 3LL-based tumor spheroids. As to the kind of experiment: Penetration of DOX formulations in tumor spheroids. It counts as cell-based, mouse. To be noted: 10 μM DOX concentration. The procedure:
(§1) Multicellular tumor spheroid models consisting of different cancer cell lines were prepared by modifying a previously reported protocol (Friedrich J, et al, Nature Protocols, 4:309-324 (2009)). Briefly, 50 μL DMEM medium containing 1.5% agarose (wt/vol) was plated onto each well of a 96-well microtiter plate under sterile conditions. After the agarose solidifies, the plates were stored at room temperature until use. For the penetration study, 5×10^3 cells were seeded onto the agarose-plated 96-well plates. After 4-5 days culture to obtain multicellular tumor spheroids (400-500 μm in diameter), the tumor spheroids were carefully transferred into glass bottom dishes. […] After the 2-hour incubation, the cells were observed using confocal microscopy with Z-stack imaging at ˜10 μm intervals. […] The 3D images of spheroids were reconstructed by ZEN microscopy software (Carl Zeiss). For analyzing the penetration distance, the radial intensity distribution profile was determined using a custom-made MATLAB code where αtumor is the radius of individual spheroids and r is the radial distance from the spheroid center (r/αtumor=0 and 1 indicate the center and edge of the tumor spheroid, respectively). […] Quantification analysis of signal intensity was performed with ImageJ software (NIH).
Multicellular tumor spheroids were prepared and post-treatment analyzed as described in Example 4.

Data set [2] has as its system 3LL cells stably expressing firefly luciferase (3LL-Luc). Description: In vitro cytotoxicity, luciferase activity. It counts as cell-based, mouse. To be noted: 24 hour treatment. The procedure:
Cytotoxicity was evaluated by optical imaging of luciferase expression. 3LL cells stably expressing firefly luciferase (3LL-Luc) were treated with various concentrations of PEG-FTn-DOX and DOX for 24 hour. After adding a D-luciferin solution, the bioluminescence imaging was acquired by a Xenogen IVIS Spectrum optical imaging system (Caliper Life Sciences). The luciferase activity was quantified to determine IC50 by fitting the data with nonlinear regression using GraphPad Prism.

Data set [3] has as its system 3LL-Luc orthotopic proximal lung cancer. As to the kind of experiment: In vivo anti-cancer efficacy, orthotopic proximal lung cancer model. Further details: species or system mouse. To be noted: single intratracheal dose 0.25 mg/kg. The source says:
To evaluate the efficacy of PEG-FTn-DOX for treating lung airway cancer, an aggressive orthotopic mouse model was established of proximal lung cancer in inbred mice with intact host immunity. The model was established via intratracheal intubation of cancer cells into the tracheal and bronchial epithelium of lung airways (DuPage M, et al., Nature protocols, 4:1064-1072 (2009)), which was relevant to small cell lung cancer and squamous-cell lung cancer. Briefly, female C57BL/6 mice (6-8 weeks) were inoculated with 2.5×10^4 3 LL-Luc cells in 50 μL of DMEM medium via intratracheal intubation using a 22 G×1″ Safelet catheter (Exel International). Three days after the inoculation, bioluminescence signal in the lung was observed using a Xenogen IVIS Spectrum optical imaging system. […] The tumor growth was monitored at various time points using an IVIS imaging system and the bioluminescence signal in lung at different time points was quantitatively analyzed by the Living Image® (Caliper Life Sciences) software. The survival of mice was recorded daily, and data was analyzed by Kaplan-Meier survival curve.
The luciferase activity of 3LL-Luc was visualized and quantified by a Xenogen IVIS Spectrum optical imaging system. In brief, mice were anesthetized with 2% isoflurane in O2 and received intraperitoneal injection of D-luciferin solution in PBS at a dose of 150 mg/kg. Serial images were acquired between 5 and 20 minutes after the D-luciferin administration, and the bioluminescence signal intensity was quantified by the Living Image® software.

The test system of data set [4] is 3LL cells. As to the kind of experiment: Intracellular trafficking, confocal microscopy. It counts as cell-based, mouse. To be noted: 2 hours after addition.
Data set [5] relates to 3LL cells. Description: Cell uptake / TfR 1-dependent binding of Cy5-labeled FTn formulations, flow cytometry. Type of data set: cell-based, mouse. The procedure: (§2) See detailed procedures as described in Example 4.
Subsequently, cells were incubated with Vibrant® DiO cell labeling solution (Life technologies) for 10 minutes following manufacturer's protocol (sub-cellular localization at cell membranes & lipids). After three times washing with PBS, the cells were fixed with Z-fix solution (Anatech) for 15 min, followed by 1.5 μg/mL DAPI staining at room temperature.
(§3) After washing with cold PBS, cells were analyzed using an AccuriC6 flow cytometer (BD Biosciences). […] The data was fitted to a binding curve via non-linear regression method using GraphPad Prism (GraphPad Software).
(In general: In flow cytometry, cells or beads pass a laser one at a time.)

Data set [6] has as its system 3LL cell spheroids. As to the kind of experiment: Penetration of Cy5-labeled FTn in multicellular tumor spheroids. Type of data set: cell-based, mouse. To be noted: for distribution in spheroids (3D-reconstructed confocal images): 40 nM, 2-hour incubation; for mean fluorescence signal intensity in spheroids compared to FTn: FIG. 4A. How it is done:
as §2, §1

The nature of data set [7]: Airway distribution after intranasal administration. It counts as in vivo, mouse. Conditions: for retention in lung airways (overall fluorescence intensity): compared to non-PEGylated FTn; for coverage of mouse tracheal surfaces: intranasal, 10 minutes after administration. The source says: All experiments were approved by the Institutional Animal Care and Use Committee.
Female CF-1 mice (6-8 week) were anesthetized under continuous flow of isoflurane (2% in oxygen). […] Ten minutes after administration, mice were sacrificed and the entire lungs (including trachea) were removed and frozen in Tissue-Tek optimal cutting temperature compound (Sakura Finetek). Tracheas were sectioned on a Leica Cryostat (Leica Biosystems) with a section thickness of 10 μm. The sections were stained with Prolong Gold antifade with DAPI (Life technologies), and fluorescence images of the sections were obtained using a Zeiss confocal microscope. To quantify the particle distribution, the acquired images were analyzed by following an image-based analysis method that was previously reported (Mastorakos P, et al., Proc Nat Acad Sci USA, 112(28):8720-5 (2015)). Briefly, at least 10 fluorescence images at 10× magnification were taken for the lungs harvested from individual animals. The images were quantified with ImageJ software. An average coverage and total particles in airways were determined for each mouse, and then these values were averaged over a group of n=4 mice.

Data set [8] addresses transferrin receptor 1 (TfR 1) on mouse Lewis lung carcinoma (3LL) cells (mouse) (UniProt Q62351).
Data set [9] in a line: Hydrodynamic diameter by gel-filtration / size exclusion chromatography. It counts as physicochemical. How it is done: Briefly, the protein standards with known HD (Bio-Rad), including M1 (thyroglobulin; 669 kDa, 18.8 nm HD), M2 (γ-globulin; 158 kDa, 11.9 nm HD), M3 (ovalbumin; 44 kDa, 6.13 nm HD), M4 (myoglobin; 17 kDa, 3.83 nm HD) and M5 (vitamin B12; 1.35 kDa, 1.48 nm HD), were analyzed using GFC and subsequently a standard curve of HD vs retention time was established.
A general note: Size exclusion chromatography separates by hydrodynamic size, large species first.

Data set [10] in a line: Colloidal stability by agarose gel electrophoresis (PBS, 10% human plasma). Type of data set: physicochemical. Conditions: 0.5% agarose gel, 10% human plasma 1 hour 37° C. How it is done:
Nanocages reassembled in phosphate buffered saline (PBS) with varying % of PEGylated protein were analyzed by electrophoresis within a 0.5% agarose gel to determine any aggregation.

Data set [11] relates to A549. As to the kind of experiment: Cell uptake of FTn, flow cytometry. Conditions: TfR 1-mediated. It counts as cell-based, human. How it is done: as §3
Data set [12] can be described thus: PEG surface density, fluorometric determination. It counts as physicochemical. To be noted: for PEG2k density: reassembled FTn by % PEGylated protein. The procedure:
The solution was placed on a rotary incubator for 4 hours and then concentrated by centrifugation (Amicon Ultra-0.5 mL 30 K MWCO; Millipore). […] The density was fluorometrically determined (Suk J S, et al., Advanced Drug Delivery Reviews, 99(Pt A):28-51, Epub 2015).
The ratio [Γ/SA] of total unconstrained PEG surface coverage area [Γ] to total particle surface area [SA] determines the surface PEG conformation: low-density mushroom and high-density brush regimes when [Γ/SA]<1 and [Γ/SA]≥1, respectively (Xu Q, et al., ACS Nano, 9. 9217-9227 (2015); Auguste D T, Biomaterials, 27, 2599-2608 (2006)). Briefly, the surface area occupied by one unconstrained PEG chain was calculated by random-walk statistics and given by a sphere of diameter ξ: ξ=0.76 m^1/2[Å], where m is MW of PEG chain, and the surface area occupied by one PEG molecule can be determined by π(ξ/2)^2. Thus, the surface area occupied by unconstrained PEG of MWs 10, 5 and 2 kDa is 45, 23 and 9 nm^2, respectively. The total unconstrained PEG surface area coverage [Γ] was then calculated by multiplying the area occupied at the surface per PEG chain by the total number of PEG chains per protein nanocage.

Data set [13] deals with orthotopic 3LL lung cancer. To be noted: mouse, in vivo.
Description: The mice were sacrificed 2 hour post-administration, and the entire lungs were isolated and frozen slices were prepared.
A short description of data set [14]: Physicochemical properties (hydrodynamic diameter, ζ-potential, drug loading). The procedure:
The DOX conjugated PEG-FTn is denoted as FTn/FTn-PEG2k/DOX. […] The mixture was incubated for 1 hour and 1.5 mg EDC was added to activate a carboxyl group of each DOX-linker conjugate. The resultant compounds were analyzed using high-performance liquid chromatography (HPLC, Varian Inc.) equipped with a C18 reverse phase column. […] The final product was extensively dialyzed (10 kDa MWCO; Thermo Scientific) and purified with a PD-10 column.

Data set [15] deals with TfR 1-positive lung cancer cells. Description: Uptake of FTn/FTn-PEG2k by panel of cell lines. It counts as cell-based. To be noted: C2C12, NCI-H69, H69-AR, SW210.5, A549, NCI-H460, NCI-H1975, PC 9. How it is done: as §3
TfR 1 expression was determined by western blot analysis with anti-TfR 1 antibody (Ab) (BD Pharmingen) in various cell lines in vitro, including mouse Lewis lung carcinoma (3LL) cells, mouse myoblast (C2C12, a TfR 1-negative cell line as the negative control), human small cell lung cancer cells (NCI-H69, H69-AR, and SW210.5), and human non-small cell lung cancer cells (A549, NCI-H460, NCI-H1975, and PC 9). The expression was also determined when 3LL, A549, PC9, and SW210.5 cells were incubated in 20% oxygen and 1% oxygen (i.e. hypoxic condition).

Broadly, the IC50 is the point on the concentration scale where inhibition reaches its midpoint. A high value points to lower potency. As to `COc1cccc2c1C(=O)c1c(O)c3c(c(O)c1C2=O)C[C@@](O)(C(=O)CO)C[C@@H]3O[C@H]1C[C@H](N)[C@H](O)[C@H](C)O1` [DOX, doxorubicin, reference compound], the “distribution in spheroids (3D confocal images)” value in [1] is “remained primarily at the periphery of the spheroids”. Moreover, the 50% inhibitory concentration (IC50) in [2] is 480 nM. In data set [3], this molecule returned a median survival of 18 days. The “intracellular localization of DOX” value in data set [4] is reported as “primarily localized in the cell nuclei”.
On to “FTn-Cy5: FTn labeled with fluorescent dye Cy5, ~23 dye molecules per FTn”, for which the “uptake in the presence of anti-TfR 1 antibody” value in data set [5] (10-fold molar excess anti-TfR 1 Ab) was “significantly reduced uptake”. The “penetration in presence of excess unlabeled FTn” value in data set [6] (10-fold molar excess, 1 hour) is on record as “reduced significantly”.
Consider “FTn/FTn-PEG5k: hybrid FTn with 1:1 molar ratio of FTn and FTn conjugated with 5 kDa PEG”, for which, in data set [7], the “retention in lung airways (overall fluorescence intensity)” value was “retained at higher levels” and the “coverage of mouse tracheal surfaces” value is 80±8%. In [6], the “distribution in spheroids (3D-reconstructed confocal images)” value was “primarily near the periphery of tumor spheroids” and the “mean fluorescence signal intensity in spheroids compared to FTn” value is recorded as “significantly lower intensity”.
In the case of “FTn/FTn-PEG10k: hybrid FTn with 1:1 molar ratio of FTn and FTn conjugated with 10 kDa PEG”, the “coverage of mouse tracheal surfaces” value in data set [7] was 74±8%. The “uptake compared to the uptake of FTn” value in data set [5] (FIG. 3C) is “significantly reduced”. Besides, in data set [6], the “distribution in spheroids (3D-reconstructed confocal images)” value is recorded as “primarily near the periphery of tumor spheroids” and the “mean fluorescence signal intensity in spheroids compared to FTn” value is recorded as “significantly lower intensity”.
The molecule “hybrid nanocage FTn/FTn-PEG2k (50% ferritin and 50% ferritin PEGylated with 2 kDa PEG) (ligand)” registered a relative uptake (%) by 3LL cells, non-PEGylated FTn = 100% (% of the uptake of non-PEGylated FTn) in data set [8] above 80.
As to “FTn: ferritin heavy-chain nanocages self-assembled from recombinant human ferritin heavy chain, without PEG”, the “coverage of mouse tracheal surfaces” value in data set [7] turned out to be 50±9%. Also, the distribution in airways entry in data set [7] (mucus-covered large airways (trachea)) is “sparsely distributed in airways”. Also, the “diameter from size exclusion chromatography” value is given as 1.8-5.4 nm in data set [9] (pH 2.0, broad peak) and 13.2 nm in data set [9] (pH 7.4, single peak). Moreover, the “aggregation during electrophoresis (colloidal stability)” value in data set [10] is “aggregated and were stuck in the wells”. The “uptake by A549” value in [11] is listed as “taken up”. Further, the PEG2k density in data set [12] is on record as 0 #/nm^2. Besides, the “distribution in spheroids (3D-reconstructed confocal images)” value in data set [6] is “uniformly distributed throughout the entire spheroids including the core”. In addition, the “mean fluorescence signal intensity in spheroids in presence of anti-TfR 1 Ab” value in data set [6] (10-fold molar excess, 1 hour) was “significantly decreased”.
Take “FTn/FTn-PEG2k: hybrid nanocage formed with 50% ferritin and 50% PEGylated ferritin using PEG2k”: in data set [7], the “retention in lung airways (overall fluorescence intensity)” value is given as “retained at higher levels” and the “coverage of mouse tracheal surfaces” value is listed as 77±8%. Further, in [5] (3LL cells, 2 kDa PEG, non-PEGylated FTn = 100%), the “tumor cell uptake compared to non-PEGylated FTn” value is “more than 80%”. Further, the “localization in orthotopic lung cancer” value in [13] is “found preferentially within the tumor tissue”. For the same molecule, in [14], the Hydrodynamic diameter worked out at 13.6 ± 1.3 nm and the ζ-potential was −4.1 ± 1.1 mV. For the same molecule, the colocalization with lysosomes result in [4] was “colocalized with lysosomes”. In [15], the “uptake by TfR 1-positive cells” value is recorded as “efficiently taken up”. Moreover, the PEG surface density in data set [12] (hybrid nanocage, fluorometric measurement) is around 0.24±0.03 PEG/nm^2. Also, the PEG2k density in data set [12] is recorded as 0.21 #/nm^2. For the same molecule, in data set [6], the “distribution in spheroids (3D-reconstructed confocal images)” value is “uniformly distributed throughout the entire spheroids including the core” and the “mean fluorescence signal intensity in spheroids compared to FTn” value was “indistinguishable”. The “mean fluorescence signal intensity in spheroids in presence of anti-TfR 1 Ab” value in data set [6] (10-fold molar excess, 1 hour) is “significantly decreased”.

These data come from patent publication US11090391B2, “Protein nanocages with enhanced mucus penetration for targeted tissue and intracellular delivery” (The Johns Hopkins University, priority 2016, dated 2021).
